Experimental data from paper PMC8002893, “Influence of Complexation of Thiosemicarbazone Derivatives with Cu (II) Ions on Their Antitumor Activity against Melanoma Cells” (International Journal of Molecular Sciences, 2021).

Assays:
[1] = test system: BJ human normal fibroblast cells; experiment: MTT cell viability assay, BJ normal fibroblasts; type: cell-based; settings: MTT test, 24 h treatment
Method: (§1) The evaluation of cytotoxicity of tested compounds was carried out on the G361, A375, and SK-MEL-28 human melanoma cells and BJ human normal fibroblast cells. The cell lines were obtained from American Type Culture Collection (ATCC, Manassas, VA, USA). The cells were cultured at 37 °C in the presence of 5% CO2 in atmosphere. The culture medium (Dulbecco’s Modified Eagle’s Medium for G361 and A375 and Eagle’s Minimum Essential Medium for SK-MEL-28 and BJ) was supplemented with 10% foetal bovine serum. The cells morphology was examined under inverted phase contrast microscope Nikon Eclipse Ti (Nikon, Tokyo, Japan). The authenticity of tested cell lines was verified by short tandem repeat (STR) genotyping in the Department of Forensic Medicine (Medical University of Lublin, Lublin, Poland).
(§2) The cells were seeded into 96-well plates (in concentration: BJ, A375, and SK-MEL-28—1 × 10^5 cells/mL, G361—1.5 × 10^5 cells/mL) and cultured until they reach 70–80% confluency. Then the cells were incubated with tested compounds and dacarbazine in concentrations ranging from 10 to 500 µM or DMSO as vehicle in control cultures for next 24 h (max. DMSO concentration <0.5%). The compounds cytotoxicity was evaluated with the MTT colorimetric method based on the ability of viable cells to the transformation of tetrazolium salts (3-[4,5-dimethylthiazol-2-yl]-2,5-) diphenyltetrazolium bromide, MTT) to purple formazan, by cellular dehydrogenases. After 24-h-incubation cell cultures were supplemented with 20 µL of 5 mg/mL MTT (Thermofisher, Waltham, MA, USA) stock in PBS (Corning, NY, USA), and the incubation was continued for 4 h at 37 °C. Next, the medium with MTT was removed, and the formed crystals were dissolved in 200 µL of DMSO (dimethyl sulfoxide, Avantor, Gliwice, Poland). The solution absorbency was measured at 570 nm, using a PowerWave™ xs microplate spectrophotometer (BioTek Instruments, Winooski, VT, USA). The experiment was performed three times with three replicates for each concentration of tested compounds. IC50 values were determined using the AAT Bioquest IC50 calculator [51]. On the basis of obtained IC50 values for normal and malignant cells, A375 cell line and three tested compounds (CuT1, Cu10, CuT16) were chosen for further investigation.

[2] = test system: G361 human melanoma cells; experiment: MTT cell viability assay, G361 melanoma; type: cell-based; settings: G361, MTT test, 24 h treatment
Method: as §1, §2

[3] = test system: A375 human melanoma cells; experiment: MTT cell viability assay, A375 melanoma; type: cell-based; settings: A375, MTT test, 24 h treatment
Method: as §1, §2

[4] = test system: SK-MEL-28 human melanoma cells; experiment: MTT cell viability assay, SK-MEL-28 melanoma; type: cell-based; settings: SK-MEL-28, MTT test, 24 h treatment
Method: as §1, §2

Structure (SMILES) | IC50 ([1]; Homo sapiens, Fibroblast) | IC50 ([2]; Homo sapiens, G-361) | IC50 ([3]; Homo sapiens, A-375) | IC50 ([4]; Homo sapiens) | melting point | also measured
S=C(NN=Cc1ccc(Cl)c(Cl)c1)Nc1ccccc1Cl [T12, 2-[(3,4-Dichlorophenyl)methylidene]-N-(2-chlorophenyl)hydrazine-1-carbothioamide] | 129 ± 7.09 µM | 177 ± 4.09 µM | 112 ± 12.8 µM | 99.6 ± 5.76 µM | 210 to 211 °C | 
CN(C)/N=N/c1[nH]cnc1C(N)=O [DTIC, dacarbazine, reference compound] | > 500 µM | 426 ± 4.74 µM | 413 ± 7.08 µM | 370 ± 9.46 µM |  | 
S=C(NN=Cc1ccc(Cl)c(Cl)c1)Nc1cccc(Cl)c1 [T15, N-(3-Chlorophenyl)-2-[(3,4-dichlorophenyl)methylidene]hydrazine-1-carbothioamide] |  |  |  |  | 210 to 212 °C | 
S=C(NN=Cc1ccc(Br)cc1)Nc1ccccc1Cl [T9, 2-[(4-Bromophenyl)methylidene]-N-(2-chlorophenyl)hydrazine-1-carbothioamide] |  |  |  |  | 209 to 211 °C | 
COc1ccc(C=NNC(=S)Nc2ccccc2)cc1OC [T1] | 358 ± 7.85 µM | 488.1 ± 1.66 µM | 321 ± 2.85 µM | > 500 µM |  | 
S=C(NN=Cc1ccc(Br)cc1)Nc1ccc(Cl)cc1 [T18, 2-[(4-Bromophenyl)methylidene]-N-(4-chlorophenyl)hydrazine-1-carbothioamide] |  |  |  |  | 182 to 184 °C | 
S=C(NN=Cc1ccc(Cl)c(Cl)c1)Nc1ccccc1Cl.S=C(NN=Cc1ccc(Cl)c(Cl)c1)Nc1ccccc1Cl.[Cl-].[Cl-].[Cu+2] [CuT12] |  |  |  |  |  | IC50 [1]: 42.9 ± 1.17 µM; IC50 [2]: 157 ± 2.75 µM; IC50 [3]: 40.5 ± 0.98 µM; IC50 [4]: 46.1 ± 2.74 µM
Cc1ccccc1NC(=S)NN=Cc1ccc(Cl)c(Cl)c1 [T8, 2-[(3,4-Dichlorophenyl)methylidene]-N-(2-methylphenyl)hydrazine-1-carbothioamide] |  |  |  |  | 200 to 202 °C | 
CNC(=S)NN=C(C)c1ccc(N)cc1 [T4, 2-[1-(4-Aminophenyl)ethylidene]-N-methyl-hydrazine-1-carbothioamide] |  |  |  |  | 170 to 172 °C | 
